Test results taken from publication PMC5566973 (Frontiers in Pharmacology, 2017).
“And” between values parts separate entries of the source, which are not always exact repeats. Equal values may be shown once.

Biological target: T1, human BCRP (Homo sapiens, UniProt Q9UNQ0)
T1 construct: purchased GenoMembrane (Kanagawa, Japan); host or cells: Sf9
T1 sequence (Q9UNQ0 1-655): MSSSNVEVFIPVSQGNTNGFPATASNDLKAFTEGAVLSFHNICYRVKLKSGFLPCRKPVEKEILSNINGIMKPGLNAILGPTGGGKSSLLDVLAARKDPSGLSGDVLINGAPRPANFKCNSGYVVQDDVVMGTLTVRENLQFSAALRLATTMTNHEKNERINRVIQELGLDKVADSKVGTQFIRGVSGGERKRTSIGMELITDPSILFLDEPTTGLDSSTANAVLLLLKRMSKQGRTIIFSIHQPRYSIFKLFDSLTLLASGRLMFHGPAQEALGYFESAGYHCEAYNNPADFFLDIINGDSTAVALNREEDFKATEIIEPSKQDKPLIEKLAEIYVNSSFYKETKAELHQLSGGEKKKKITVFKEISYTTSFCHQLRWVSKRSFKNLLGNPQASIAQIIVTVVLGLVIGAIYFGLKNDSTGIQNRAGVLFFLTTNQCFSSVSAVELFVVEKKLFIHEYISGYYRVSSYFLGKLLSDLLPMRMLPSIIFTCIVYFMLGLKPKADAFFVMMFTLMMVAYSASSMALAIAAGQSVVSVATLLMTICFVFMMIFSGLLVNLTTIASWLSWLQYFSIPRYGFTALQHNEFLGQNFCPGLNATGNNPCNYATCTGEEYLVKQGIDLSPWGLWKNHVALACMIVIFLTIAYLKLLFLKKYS
Assay: Vesicular transport assay, Sf9 membrane vesicles expressing human BCRP
Type: in vitro ADME
Conditions: 1 μM, MgATP vs MgAMP
Procedure: The vesicular transport assay was implemented as described in the GenoMembrane™ vesicular transport kit protocol (GenoMembrane, Kanagawa, Japan) with minor changes. Briefly, vesicle stocks were thawed and diluted with assay buffer (50 mM MOPS-Tris, 70 mM KCl, and 7.5 mM MgCl2). […] MgAMP instead of MgATP was used as a control. Apart from these, 4 mM glutathione was also included in BCRP and MRP2 assays. Transport was terminated with ice cold assay buffer, and then samples were quickly transferred to a filter plate. Wells were immediately washed 5 times with 200 μL assay buffer and dried. The vesicles on the plate were dissolved in 50 μL of 80% methanol and centrifuged at 2,000 rpm for 2 min after collection, and repeating the above procedures. Mixed the two filtrates together and added the pre-cooled methanol. After centrifugation at 12,000 rpm for 5 min at 4°C, a 5 μL aliquot of supernatant was injected into the UPLC-ESI-MS/MS system for analysis. Furthermore, the uptake of NMQ (MDR1), LY (BCRP), and E217βG (MRP2) was used to evaluate the activity of specific vesicles.

COc1ccc2c3c([nH]c2c1)C(C)=NCC3 [Harmaline]
uptake ratio (UR): < 2.00 and 1.42
